Each compound was assayed on HCT-116 (assay: Antiproliferative activity against human HCT116 cells after 72 hrs by resazurin-based fluorescence assay). Conditions: HCT-116, 72 h.
Format: functional, cell-based

Compound	IC50 [µM]
COc1cc(C(C)c2ccc(OC(F)(F)F)c(N)c2)cc(OC)c1OC (stereo unspecified)	3
C=C(c1ccc(OC)c(N)c1)c1cc(F)c(F)c(F)c1	0.1
C=C(c1cc(OC)cc(OC)c1)c1ccc(OC(F)(F)F)c([N+](=O)[O-])c1	> 10
C=C(c1ccc(OC(F)(F)F)cc1)c1cc(OC)c(OC)c(OC)c1	5

Second part, the compound after the results:

IC50 [µM]	Compound
> 10	C=C(c1ccc(OC(F)(F)F)cc1)c1cc(OC)cc(OC)c1
> 10	C=C(c1ccc(OC(F)(F)F)cc1)c1c(OC)cc(OC)cc1OC
